In US20240408169A1 (priority 2023, published 2024):
*1 amine or outer side, *2 acyl side, *3 side chain or, on linkers, in order; H or OH if unused. Where a SMILES comes first, the peptide text is derived from it. Bridges are numbered along the chain shown (N, C = ends). [ ]: non-standard residue; d: D form. The star is where a group is joined. X212 = CN1CCC(Oc2ccc(-c3ccc(Cl)cc3C[C@@H](C(=O)[*:2])N(C)[*:1])cn2)CC1; X42 = CN([C@@H](Cc1cc(Cl)ccc1-c1cnn(S(=O)(=O)C2CC2)c1)C(=O)[*:2])[*:1]; X175 = Cc1cc(-c2ccc(Cl)cc2C[C@@H](C(=O)[*:2])N(C)[*:1])ccc1N1CCOCC1; X137 = CN([C@@H](Cc1cc(F)ccc1-c1cnn(S(C)(=O)=O)c1)C(=O)[*:2])[*:1]; X200 = CN([C@@H](Cc1cc(F)ccc1C1CCN(C(=O)C2CC2)CC1)C(=O)[*:2])[*:1]; NMePhe(5-Cl,2-O(2-Pym)) = CN[C@@H](Cc1cc(Cl)ccc1Oc1ncccn1)C(=O)O; X153 = CN([C@@H](Cc1cc(F)ccc1-c1cnn(C2CCOCC2)c1)C(=O)[*:2])[*:1]; X197 = CN([C@@H](Cc1cc(Cl)ccc1-c1ccc(=O)[nH]c1)C(=O)[*:2])[*:1]; X184 = CC(=O)N1CCC(c2ccc(F)cc2C[C@@H](C(=O)[*:2])N(C)[*:1])CC1; X203 = CN([C@@H](Cc1cc(Cl)ccc1-c1cnn(C(F)F)c1)C(=O)[*:2])[*:1]; X192 = COc1cccc(-c2ccc(Cl)cc2C[C@@H](C(=O)[*:2])N(C)[*:1])c1; NMehhhLys(Me) = CN([C@@H](CCCCCCCN(C)[*:3])C(=O)[*:2])[*:1]; X118 = Cc1cc(-c2ccc(Cl)cc2C[C@@H](C(=O)[*:2])N(C)[*:1])cnn1; X194 = CN([C@@H](Cc1cc(Cl)ccc1-c1ccnnc1)C(=O)[*:2])[*:1]; NMe(hhhLys) = CN([C@@H](CCCCCCCN[*:3])C(=O)[*:2])[*:1]; Cyclobutanecarbonyl(1-CF3) = O=C(C1(C(F)(F)F)CCC1)*; cBuCO(3,3-F2-1-CF3) = O=C(C1(C(F)(F)F)CC(F)(F)C1)*; Pro(trans-4-F) = O=C(O)[C@@H]1C[C@@H](F)CN1; Gly(cPr) = N[C@H](C(=O)O)C1CC1

How the values were obtained:
CyclinA2/CDK2 = target: T1, CyclinA2/CDK2 (Homo sapiens, UniProt P20248); experiment: Fluorescence Polarization (FP) competitive binding assay, Cyclin A2/Cdk2; conditions: 8 nM Cyclin A2/Cdk2, 2 nM FAM probe; average of 2-3 independent experiments; read-out: Cyclin A FP IC50;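 further: plates equilibrated two hours at room temperature before polarization reading, IC50 fitted from eight-concentration compound titration curves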
T1 construct: purchased CRELUX Protein Services

CyclinB1/CDK1 = target: T2, CyclinB1/CDK1 (Homo sapiens, UniProt P14635); experiment: Fluorescence Polarization (FP) competitive binding assay, Cyclin B1/Cdk1; conditions: 10 nM Cyclin B1/Cdk1, 2 nM FAM probe; average of 2-3 independent experiments; read-out: Cyclin B FP IC50;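 further: fluorescence polarization read after equilibration at room temperature, with IC50 taken from serially diluted dose-response curves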
T2 construct: purchased Eurofins, discovery 14-450

CyclinE1/CDK2 = target: T3, CyclinE1/CDK2 (Homo sapiens, UniProt P24864); experiment: Fluorescence Polarization (FP) competitive binding assay, Cyclin E1/Cdk2; conditions: 10 nM Cyclin E1/Cdk2, 2 nM FAM probe; average of 2-3 independent experiments; read-out: Cyclin E FP IC50;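 further: readings taken after two-hour equilibration at room temperature in HEPES buffer with NaCl, DTT, NP-40 and BSA, IC50 fitted from eight-concentration serial dilution series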
T3 construct: purchased Eurofins, discovery 14-475

NCI-H1048 cells = experiment: MTT proliferation assay, NCI-H1048; type: cell-based; conditions: 5 days compound exposure, 1:3 serial dilution starting at 10 μM;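 further: Dose-response in 96-well plates over 8 or 10 concentration points, with exposure spanning 3-4 cell doublings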
OVCAR3 cells = experiment: MTT proliferation assay, OVCAR3; type: cell-based; conditions: 5 days compound exposure, 1:3 serial dilution starting at 10 μM;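 further: compound given as an 8- or 10-point series, one day after plating, with exposure covering roughly 3-4 cell doublings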

| SMILES | IC50 (CyclinA2/CDK2) | IC50 (CyclinB1/CDK1) | IC50 (CyclinE1/CDK2) | GI50 (NCI-H1048 cells) | GI50 (OVCAR3 cells) |
| --- | --- | --- | --- | --- | --- |
| COc1cccc(-c2ccc(Cl)cc2C[C@H]2C(=O)N(C)CCCCCCC[C@H](N(C)C(=O)[C@@H](NC(=O)[C@@H]3C[C@@H](F)CN3C(=O)C3(C(F)(F)F)CC(F)(F)C3)C3CC3)C(=O)N[C@@H](CC(C)C)C(=O)N2C)c1 [Example 197] ({cBuCO(3,3-F2-1-CF3)}-[Pro(trans-4-F)][Gly(cPr)][NMehhhLys(Me)]L[X192]; lactam 3-C) | 20 nM | 20 nM | 310 nM | 50 nM | 100 nM |
| Cc1cc(-c2ccc(Cl)cc2C[C@H]2C(=O)N(C)CCCCCCC[C@H](N(C)C(=O)[C@@H](NC(=O)[C@@H]3C[C@@H](F)CN3C(=O)C3(C(F)(F)F)CC(F)(F)C3)C3CC3)C(=O)N[C@@H](CC(C)C)C(=O)N2C)cnn1 [Example 296] ({cBuCO(3,3-F2-1-CF3)}-[Pro(trans-4-F)][Gly(cPr)][NMehhhLys(Me)]L[X118]; lactam 3-C) | 70 nM | 20 nM | 2810 nM | 70 nM | 100 nM |
| CC(=O)N1CC=C(c2ccc(Cl)cc2C[C@H]2C(=O)N(C)CCCCC=CC[C@H](N(C)C(=O)[C@@H](NC(=O)[C@@H]3C[C@@H](F)CN3C(=O)C3(C(F)(F)F)CC(F)(F)C3)C3CC3)C(=O)N[C@@H](CC(C)C)C(=O)N2C)CC1 [Example 31] | 30 nM | 20 nM | 2200 nM | 80 nM | 150 nM |
| CC(C)C[C@@H]1NC(=O)[C@@H](N(C)C(=O)[C@@H](NC(=O)[C@@H]2C[C@@H](F)CN2C(=O)C2(C(F)(F)F)CC(F)(F)C2)C2CC2)CC=CCCCCN(C)C(=O)[C@H](Cc2cc(Cl)cnc2OC2CC2)N(C)C1=O [Example 104] | 160 nM | 20 nM | 490 nM | 160 nM | 260 nM |
| CC(C)C[C@@H]1NC(=O)[C@@H](N(C)C(=O)[C@@H](NC(=O)[C@@H]2C[C@@H](F)CN2C(=O)C2(C(F)(F)F)CCC2)C2CC2)CCCCCCCNC(=O)[C@H](Cc2cc(Cl)ccc2Oc2ncccn2)N(C)C1=O [Example 158] ({Cyclobutanecarbonyl(1-CF3)}-[Pro(trans-4-F)][Gly(cPr)][NMe(hhhLys)]L[NMePhe(5-Cl,2-O(2-Pym))]; lactam 3-C) | 100 nM | 20 nM | 210 nM | 20 nM | 20 nM |
| CC(C)C[C@@H]1NC(=O)[C@@H](N(C)C(=O)[C@@H](NC(=O)[C@@H]2C[C@@H](F)CN2C(=O)C2(C(F)(F)F)CC(F)(F)C2)C2CC2)CC=CCCCCNC(=O)[C@H](Cc2cc(F)ccc2-c2cnn(C)c2)N(C)C1=O [Example 195] | 40 nM | 20 nM | 180 nM | 10 nM | 10 nM |
| CC(C)C[C@H]1NC(=O)[C@H](N(C)C(=O)[C@H](NC(=O)[C@H]2C[C@H](F)CN2C(=O)C2(C#N)CCC2)C2CC2)CCCCCCCN(C)C(=O)[C@@H](Cc2cc(Cl)ccc2-c2cnn(C)c2)N(C)C1=O [Example 82] | 20 nM | 20 nM | 220 nM | 30 nM | 70 nM |
| CC(C)C[C@@H]1NC(=O)[C@@H](N(C)C(=O)[C@@H](NC(=O)[C@@H]2C[C@@H](F)CN2C(=O)C2(C(F)(F)F)CC(F)(F)C2)C2CC2)CCCCCCCN(C)C(=O)[C@H](Cc2cc(F)ccc2-c2cnn(C3CCOCC3)c2)N(C)C1=O [Example 93] ({cBuCO(3,3-F2-1-CF3)}-[Pro(trans-4-F)][Gly(cPr)][NMehhhLys(Me)]L[X153]; lactam 3-C) | 20 nM | 20 nM | 140 nM | 10 nM | 10 nM |
| CC(C)C[C@@H]1NC(=O)[C@@H](N(C)C(=O)[C@@H](NC(=O)[C@@H]2C[C@@H](F)CN2C(=O)C2(C(F)(F)F)CC(F)(F)C2)C2CC2)CCCCCCCN(C)C(=O)[C@H](Cc2cc(F)ccc2-c2cnn(S(C)(=O)=O)c2)N(C)C1=O [Example 95] ({cBuCO(3,3-F2-1-CF3)}-[Pro(trans-4-F)][Gly(cPr)][NMehhhLys(Me)]L[X137]; lactam 3-C) | 50 nM | 20 nM | 530 nM | 10 nM | 20 nM |
| CC(C)C[C@@H]1NC(=O)[C@@H](NC(=O)[C@@H](NC(=O)[C@@H]2C[C@@H](F)CN2C(=O)C2(C(F)(F)F)CC(F)(F)C2)C2CC2)CC=CCCCCN(C)C(=O)[C@H](Cc2cc(Cl)ccc2Cl)N(C)C1=O [Example 12] | 60 nM | 20 nM | 100 nM | 30 nM | 40 nM |
| CC(C)C[C@@H]1NC(=O)[C@@H](N(C)C(=O)[C@@H](NC(=O)[C@@H]2C[C@@H](F)CN2C(=O)C2(C(F)(F)F)CC(F)(F)C2)C2CC2)CCCCCCCN(C)C(=O)[C@H](Cc2cc(F)ccc2C2CCN(C(=O)C3CC3)CC2)N(C)C1=O [Example 101] ({cBuCO(3,3-F2-1-CF3)}-[Pro(trans-4-F)][Gly(cPr)][NMehhhLys(Me)]L[X200]; lactam 3-C) | 30 nM | 20 nM | 470 nM | 20 nM | 30 nM |
| CC(C)C[C@@H]1NC(=O)[C@@H](N(C)C(=O)[C@@H](NC(=O)[C@@H]2C[C@@H](F)CN2C(=O)C2(C(F)(F)F)CC(F)(F)C2)C2CC2)CCCCCCCN(C)C(=O)[C@H](Cc2cc(Cl)ccc2-c2ccc(OC3CCN(C)CC3)nc2)N(C)C1=O [Example 396] ({cBuCO(3,3-F2-1-CF3)}-[Pro(trans-4-F)][Gly(cPr)][NMehhhLys(Me)]L[X212]; lactam 3-C) | 30 nM | 20 nM | 2530 nM | 20 nM | 10 nM |
| CC(=O)N1CCC(c2ccc(F)cc2C[C@H]2C(=O)N(C)CCCCCCC[C@H](N(C)C(=O)[C@@H](NC(=O)[C@@H]3C[C@@H](F)CN3C(=O)C3(C(F)(F)F)CC(F)(F)C3)C3CC3)C(=O)N[C@@H](CC(C)C)C(=O)N2C)CC1 [Example 45, (2S,4R)—N—((S)-2-(((3S,6S,9S)-3-(2-(1-acetylpiperidin-4-yl)-5-fluorobenzyl)-6-isobutyl-1,4-dimethyl-2,5,8-trioxo-1,4,7-triazacyclohexadecan-9-yl)(methyl)amino)-1-cyclopropyl-2-oxoethyl)-1-(3,3-difluoro-1-(trifluoromethyl)cyclobutane-1-carbonyl)-4-fluoropyrrolidine-2-carboxamide] ({cBuCO(3,3-F2-1-CF3)}-[Pro(trans-4-F)][Gly(cPr)][NMehhhLys(Me)]L[X184]; lactam 3-C) | 100 nM | 20 nM | 330 nM | 20 nM | 40 nM |
| CC(C)C[C@@H]1NC(=O)[C@@H](N(C)C(=O)[C@@H](NC(=O)[C@@H]2C[C@@H](F)CN2C(=O)C2(C(F)(F)F)CC(F)(F)C2)C2CC2)CCCCCCCNC(=O)[C@H](Cc2cc(Cl)ccc2-c2cnn(S(=O)(=O)C3CC3)c2)N(C)C1=O [Example 300] ({cBuCO(3,3-F2-1-CF3)}-[Pro(trans-4-F)][Gly(cPr)][NMe(hhhLys)]L[X42]; lactam 3-C) | 30 nM | 20 nM | 680 nM | 30 nM | 40 nM |
| CC(C)C[C@@H]1NC(=O)[C@@H](N(C)C(=O)[C@@H](NC(=O)[C@@H]2C[C@@H](F)CN2C(=O)C2(C(F)(F)F)CC(F)(F)C2)C2CC2)CCCCCCCN(C)C(=O)[C@H](Cc2cc(Cl)ccc2-c2cnn(C(F)F)c2)N(C)C1=O [Example 200] ({cBuCO(3,3-F2-1-CF3)}-[Pro(trans-4-F)][Gly(cPr)][NMehhhLys(Me)]L[X203]; lactam 3-C) | 30 nM | 20 nM | 890 nM | 40 nM | 30 nM |
| CC(C)C[C@@H]1NC(=O)[C@@H](N(C)C(=O)[C@@H](NC(=O)[C@@H]2C[C@@H](F)CN2C(=O)C2(C(F)(F)F)CC(F)(F)C2)C2CC2)CCCCCCCN(C)C(=O)[C@H](Cc2cc(Cl)ccc2-c2ccc(=O)[nH]c2)N(C)C1=O [Example 180] ({cBuCO(3,3-F2-1-CF3)}-[Pro(trans-4-F)][Gly(cPr)][NMehhhLys(Me)]L[X197]; lactam 3-C) | 30 nM | 20 nM | 1860 nM | 730 nM | 1220 nM |
| CC(=O)N1C2C=C(c3ccc(F)cc3C[C@H]3C(=O)N(C)CCCCCCC[C@H](N(C)C(=O)[C@@H](NC(=O)[C@@H]4C[C@@H](F)CN4C(=O)C4(C(F)(F)F)CC(F)(F)C4)C4CC4)C(=O)N[C@@H](CC(C)C)C(=O)N3C)CC1CC2 (some centres unmarked) [Example 149] | 20 nM | 20 nM | 560 nM | 30 nM | 40 nM |
| CC(C)C[C@@H]1NC(=O)[C@@H](N(C)C(=O)[C@@H](NC(=O)[C@@H]2C[C@@H](F)CN2C(=O)C2(C(F)(F)F)CC(F)(F)C2)C2CC2)CCCCCCCN(C)C(=O)[C@H](Cc2cc(Cl)ccc2-c2ccnnc2)N(C)C1=O [Example 292] ({cBuCO(3,3-F2-1-CF3)}-[Pro(trans-4-F)][Gly(cPr)][NMehhhLys(Me)]L[X194]; lactam 3-C) | 60 nM | 20 nM | 2880 nM | 70 nM | 110 nM |
| Cc1cc(-c2ccc(Cl)cc2C[C@H]2C(=O)N(C)CCCCCCC[C@H](N(C)C(=O)[C@@H](NC(=O)[C@@H]3C[C@@H](F)CN3C(=O)C3(C(F)(F)F)CC(F)(F)C3)C3CC3)C(=O)N[C@@H](CC(C)C)C(=O)N2C)ccc1N1CCOCC1 [Example 344] ({cBuCO(3,3-F2-1-CF3)}-[Pro(trans-4-F)][Gly(cPr)][NMehhhLys(Me)]L[X175]; lactam 3-C) | 20 nM | 20 nM | 1270 nM | 10 nM | 20 nM |
